The values that follow come from US11890279B2, “Quinolines that modulate SERCA and their use for treating disease” (Neurodon Corporation, priority 2020, dated 2024).

One series concerns ob/ob mice. The experiment in a line: Glucose (GTT) and insulin (ITT) tolerance tests in ob/ob mice. It is filed as in vivo, mouse. Conditions: vs vehicle. The procedure:
For the GTT, D-glucose dissolved in 0.9% NaCl was delivered intraperitoneally at a dose of 1 g/kg. The blood glucose level was measured 0, 15, 30, 60, 90, and 120 min after glucose administration. For the ITT, insulin was administered intraperitoneally at a dose of 1 IU/kg. The blood glucose level was measured 0, 15, 30, 60, 90, and 120 min after insulin administration. Glucose levels were measured in blood samples drawn from the tail vein using OneTouch Ultra 2 Meter (LifeScan, Inc.).

For the next series, the system named is liver of ob/ob mice. As to the kind of experiment: Liver expression of gluconeogenesis and lipogenesis genes in ob/ob mice. It is filed as in vivo, mouse. Here is the method: The expression of key genes involved in gluconeogenesis and lipogenesis was measured. RNA was isolated from liver samples of the ob/ob mice and mRNA expression of the indicated genes was quantified by Real-time PCR using iTaq Fast SYBR Green Supermix with ROX (Bio-Rad) in a 7500 Real-Time PCR systems (Applied Biosystems) using mouse specific primers. Gene expression is normalized to 18s. RNA was isolated using Trizol (Invitrogen). cDNA was generated using High Capacity cDNA Reverse Transcription kit (Applied Biosystems). Real-time PCR was performed with iTaq Fast SYBR Green Supermix with ROX (Bio-Rad) in 7500 Real-Time PCR systems (Applied Biosystems) using mouse specific primers. Gene expression was normalized to 18s. Isolated liver tissue was homogenized in RIPA buffer containing protease inhibitors and phosphatase inhibitors (Roche). Protein samples were matched for their protein concentrations and 30 micrograms of each sample were applied to SDS-PASE and transferred onto nitrocellulose membrane. Membranes were then incubated with the corresponding phosphor or total primary antibodies specific for the desired proteins followed by incubation with appropriate secondary antibodies conjugated to horseradish peroxidase (Pierce) and signal intensities were visualized by Chemiluminescence (Pierce). Films from at least four independent experiments were scanned and densities of the immunoreactive bands were evaluated using NIH Image software. GAPDH (Santa Cruz Biotechnology) was used as a loading control.

Series [1] has as its system CA1 pyramidal neurons of PS1/APP mice. The experiment in a line: Ca2+ imaging in brain slices of treated PS1/APP mice. It is filed as in vivo, mouse. Conditions: 10 mg/kg IP, 4 weeks, caffeine 10 mM, 60 sec. The text has this: Mouse Model: PS1/APP mice (PS1M146V and APPSWE) (Howlett et al., Brain Res. 2004, 1017, 130-136) were used. Age-matched NTg controls were on the same background strain (C57bl6/J9).
Brain Slice Preparation: Mice were deeply anesthetized with halothane and rapidly decapitated. The brains were extracted rapidly and 300 or 400 μm-thick transverse hippocampal slices were cut with a vibrating microtome into ice-cold oxygenated artificial cerebrospinal fluid (aCSF) with the following composition (in mM): 125 NaCl, 2.5 KCl, 1.25 KH2PO4, 1.2 MgSO4, 2 CaCl2, 10 dextrose, and 25 NaHCO3.
Ca^2+ Imaging: Ca^2+ imaging within individual neurons was performed in brain slice preparations using a custom-made video-rate multiphoton-imaging system based on an upright Olympus BX51 microscope frame. […] Emitted fluorescence light was detected by a wide-field photomultiplier (Electron Tubes) to derive a video signal that was captured and analyzed by Video Savant 5.0 software (IO Industries). […] For clarity, results are expressed as inverse ratios so that increases in [Ca^2+] correspond to increasing ratios. The % change is calculated as [(F/ΔF)−1]×100, where F is the average resting fluorescence at baseline and ΔF is the decrease of fluorescence reflecting Ca release. Differences between drug- and saline-treated groups were assessed using two-way ANOVA and Scheffe post hoc analysis for significance (p<0.05). […]

Series [2] in a line: Brain barrier penetration in mice. The format is in vivo. Conditions: mouse, brain/plasma, 10 mg/kg IP, 1 hr after dosing, read-out: brain/plasma ratio. From the text: The brains of the mice were harvested 1 hr after dosing. The brain/plasma ratio was 2.6.
Series [3] in a line: Pharmacokinetics in Sprague Dawley rats. The format is in vivo, rat. Conditions: Sprague Dawley rats. Here is the method:
Blood was drawn at 5 min, 15 min, 30 min, 1 hr, 2 hrs, 4 hrs, 6 hrs, and 8 hrs into EDTA containing tubes and plasma was harvested by centrifugation. Plasma (25 μL) was treated with acetonitrile (125 μL) containing an internal standard. The sample was then centrifuged for 5 min at 4,000 rpm in a tabletop centrifuge and the filtrate was collected. The filtrate was injected onto a Thermo Betasil C18 HPLC column 5 (50×2.1 mm). Mobile Phase A was water with 0.1% formic acid. Mobile Phase B was acetonitrile with 0.1% formic acid. […] An API Sciex 4000 equipped with a turbo ion spray source was used for all analytical measurements. A positive ion MRM method was developed. Peak areas of the product ion were measured against the peak areas of the internal standard. Data was fit using WinNonLin (Pharsight Corporation, Mountain View, CA).

Series [4] deals with APPSWE/PSEN1dE9 double-transgenic mice. As to the kind of experiment: Alzheimer's model behavioral test, Morris water maze. Conditions: 10 mg/kg IP daily for 4 weeks; vs vehicle. It is filed as in vivo, mouse. Here is the method: Briefly, the mice were shown a visible platform that was subsequently removed. The distance that the mice swim searching for the platform was measured, with a shorter distance indicating increased memory. […] Motor coordination, strength, and balance was assessed using the Rotarod test (FIG. 6, B). Mice were first trained until they could remain on a rotarod revolving at 16 rpm for three consecutive 120 sec trials. The next day the mice were placed back on the rotarod for a single trial at 18 rpm (maximum duration 120 sec). The duration a mouse could remain on the rotarod was recorded, and the mouse was then returned to its home cage. The speed of the rotarod was then increased to 21 rpm, and all mice were given another test trial. This process was repeated for rotarod speeds of 24, 27, 30, 33, and 36 rpm. All the speeds were repeated twice for the mice in different groups, interval 30 min every time. The Mean values of two tests were analyzed. The mice maintained longer time on the rotarod with more ability of motor coordination, strength and balance.

The structures appear in SMILES notation.

In the case of `Cc1ccc2cccc(NC(=O)c3ccc(OC(C)C)cc3)c2n1` [Compound A12, 4-Isopropoxy-N-(2-methylquinolin-8-yl)benzamide], in the series with ob/ob mice (day 7 post-injection), the “hyperglycemic response to i.p. glucose challenge (GTT)” value is reported as “significantly reduced”. For the same compound, the “insulin-stimulated glucose deposal (ITT)” value in the series with ob/ob mice (day 10 post-injection) was “strongly enhanced”. Besides, in the series with liver of ob/ob mice, the “expression of PPARα and PGC1α” value was “increased”; the “mRNA expression of G6PAse and PEPCK” value is “significantly reduced”; the “mRNA expression of lipogenic genes (SCD1, DGAT2, FASn, SREBP1c)” value was “significantly reduced”. In series [1], the “ER Ca^2+ signaling (RyR-Ca2+ response to caffeine)” value was “restores ER Ca^2+ signaling”. Moreover, the Kp at 1 h in series [2] turned out to be 2.6. The CLobs in series [3] (listed under oral pharmacokinetic properties) came out at 251 mL/min/kg. Besides, the peak concentration (Cmax) – broadly, the maximum level reached in the sampled fluid or tissue – in series [3] (rat, plasma, oral, 2 mg/kg P.O.) amounted to 260 nM. For the same compound, the AUC(0-t) in series [3] (rat, plasma, oral, 2 mg/kg P.O., read-out: AUClast) was 0.41 µM·h. In series [4], the “total distance in hidden platform test (Morris water maze)” value is listed as “a decrease in total distance”.
